Experimental data from patent publication US12180194B2, “Multi-aziridine compound” (Covestro (Netherlands) B.V., priority 2018, dated 2024).

How the values were obtained:
[1] = system: Rtkn-GFP; assay: ToxTracker genotoxicity assay, Rtkn-GFP reporter induction; details: for Genotoxicity test, With S9 rat liver extract, Rtkn, 10 / Genotoxicity test, Without S9 rat liver extract, Rtkn, 10: GFP induction vs vehicle at 10% cytotoxicity; for Genotoxicity test, With S9 rat liver extract, Rtkn, 10 / Genotoxicity test, With S9 rat liver extract, Rtkn, 25 / Genotoxicity test, With S9 rat liver extract, Rtkn, 50: 3 h exposure with S9, 24 h recovery; for Genotoxicity test, Without S9 rat liver extract, Rtkn, 10 / Genotoxicity test, Without S9 rat liver extract, Rtkn, 25 / Genotoxicity test, Without S9 rat liver extract, Rtkn, 50: 24 h exposure, no S9; for Genotoxicity test, With S9 rat liver extract, Rtkn, 25 / Genotoxicity test, Without S9 rat liver extract, Rtkn, 25: GFP induction vs vehicle at 25% cytotoxicity; for Genotoxicity test, With S9 rat liver extract, Rtkn, 50 / Genotoxicity test, Without S9 rat liver extract, Rtkn, 50: GFP induction vs vehicle at 50% cytotoxicity; for Genotoxicity test, Rtkn induction level: fold induction
[2] = system: Bscl2-GFP; assay: ToxTracker genotoxicity assay, Bscl2-GFP reporter induction; details: for Genotoxicity test, With S9 rat liver extract, Bscl 2, 10 / Genotoxicity test, Without S9 rat liver extract, Bscl 2, 10: GFP induction vs vehicle at 10% cytotoxicity; for Genotoxicity test, With S9 rat liver extract, Bscl 2, 10 / Genotoxicity test, With S9 rat liver extract, Bscl 2, 25 / Genotoxicity test, With S9 rat liver extract, Bscl 2, 50: 3 h exposure with S9, 24 h recovery; for Genotoxicity test, Without S9 rat liver extract, Bscl 2, 10 / Genotoxicity test, Without S9 rat liver extract, Bscl 2, 25 / Genotoxicity test, Without S9 rat liver extract, Bscl 2, 50: 24 h exposure, no S9; for Genotoxicity test, With S9 rat liver extract, Bscl 2, 25 / Genotoxicity test, Without S9 rat liver extract, Bscl 2, 25: GFP induction vs vehicle at 25% cytotoxicity; for Genotoxicity test, With S9 rat liver extract, Bscl 2, 50 / Genotoxicity test, Without S9 rat liver extract, Bscl 2, 50: GFP induction vs vehicle at 50% cytotoxicity; for Genotoxicity test, Bscl 2 induction level: fold induction
[3] = with S9 rat liver extract, concentration 10 (10% cytotoxicity)
[4] = with S9 rat liver extract, concentration 25 (25% cytotoxicity)
[5] = with S9 rat liver extract, concentration 50 (50% cytotoxicity)
[6] = without S9 rat liver extract, concentration 10 (10% cytotoxicity)
[7] = without S9 rat liver extract, concentration 25 (25% cytotoxicity)
[8] = without S9 rat liver extract, concentration 50 (50% cytotoxicity)

| SMILES | Genotoxicity test, With S9 rat liver extract, Rtkn, 10 [1] [fold] | Genotoxicity test, Without S9 rat liver extract, Rtkn, 10 [1] [fold] | Genotoxicity test, With S9 rat liver extract, Rtkn, 25 [1] [fold] | Genotoxicity test, Without S9 rat liver extract, Rtkn, 25 [1] [fold] | Genotoxicity test, With S9 rat liver extract, Rtkn, 50 [1] [fold] | Genotoxicity test, Without S9 rat liver extract, Rtkn, 50 [1] [fold] | Genotoxicity test, With S9 rat liver extract, Bscl 2, 10 [2] [fold] | Genotoxicity test, Without S9 rat liver extract, Bscl 2, 10 [2] [fold] | Genotoxicity test, With S9 rat liver extract, Bscl 2, 25 [2] [fold] | Genotoxicity test, Without S9 rat liver extract, Bscl 2, 25 [2] [fold] | Genotoxicity test, With S9 rat liver extract, Bscl 2, 50 [2] [fold] | Genotoxicity test, Without S9 rat liver extract, Bscl 2, 50 [2] [fold] | other results |
| --- | --- | --- | --- | --- | --- | --- | --- | --- | --- | --- | --- | --- | --- |
| CC(CN1CC1C)OC(=O)NC(C)(C)c1cccc(C(C)(C)NC(=O)OC(C)CN2CC2C)c1 (centres unmarked) [Comp. Ex. 8, reference compound] | 1.3 | 1.4 | 4.2 | 2.3 | 4.9 | 4.8 | 1.1 | 1.2 | 2.1 | 1.7 | 2.1 | 2.3 | – |
| CCCCOCC(CN1CC1CC)OC(=O)NCCCCCCn1c(=O)n(CCCCCCNC(=O)OC(COCCCC)CN2CC2CC)c(=O)n(CCCCCCNC(=O)OC(COCCCC)CN2CC2CC)c1=O (centres unmarked) [Ex. 32] | – | – | – | – | – | – | – | – | – | – | – | – | Genotoxicity test, Rtkn induction level [1, 3]: 1.0; Genotoxicity test, Rtkn induction level [1, 4]: 1.1; Genotoxicity test, Rtkn induction level [1, 5]: 1.1; Genotoxicity test, Rtkn induction level [1, 6]: 1.0; Genotoxicity test, Rtkn induction level [1, 7]: 1.1; Genotoxicity test, Rtkn induction level [1, 8]: 1.1; Genotoxicity test, Bscl 2 induction level [2, 3]: 1.1; Genotoxicity test, Bscl 2 induction level [2, 4]: 1.1; Genotoxicity test, Bscl 2 induction level [2, 5]: 1.1; Genotoxicity test, Bscl 2 induction level [2, 6]: 1.1; Genotoxicity test, Bscl 2 induction level [2, 7]: 1.2; Genotoxicity test, Bscl 2 induction level [2, 8]: 1.3 |
| CCCCOCC(CN1CC1C)OC(=O)NC1CCC(CC2CCC(NC(=O)OC(COCCCC)CN3CC3C)CC2)CC1 (centres unmarked) [Ex. 12] | 1.0 | 1.0 | 1.0 | 1.0 | 1.1 | 1.0 | 1.1 | 1.0 | 1.0 | 1.0 | 1.0 | 1.0 | – |
| COCCOCCOCCOCCOCCOCCOCCOCCOCCOCCOCCOCCOCCOCC(CN1CC1C)OC(=O)NCCCCCCn1c(=O)n(CCCCCCNC(=O)OC(COCCOCCOCCOCCOCCOCCOCCOCCOCCOCCOCCOCCOCCOC)CN2CC2C)c(=O)n(CCCCCCNC(=O)OC(COCCOCCOCCOCCOCCOCCOCCOCCOCCOCCOCCOCCOCCOC)CN2CC2C)c1=O (centres unmarked) [Ex. 29] | 1.1 | 1.0 | 1.1 | 1.1 | 1.1 | 1.1 | 1.1 | 1.1 | 1.1 | 1.4 | 1.1 | 1.4 | – |
| CCC(CN1CC1C)OC(=O)NCCCCCCn1c(=O)n(CCCCCCNC(=O)OC(CC)CN2CC2C)c(=O)n(CCCCCCNC(=O)OC(CC)CN2CC2C)c1=O (centres unmarked) [Ex. 7] | 1.1 | 1.1 | 1.3 | 1.3 | 1.5 | – | 1.1 | 1.1 | 1.3 | 1.1 | 1.5 | – | – |
| CC1CN1C1CCCCC1OC(=O)NCCCCCCn1c(=O)n(CCCCCCNC(=O)OC2CCCCC2N2CC2C)c(=O)n(CCCCCCNC(=O)OC2CCCCC2N2CC2C)c1=O (centres unmarked) [Ex. 19] | 1.2 | 1.2 | 1.3 | 1.3 | 1.3 | – | 1.1 | 1.1 | 1.2 | 1.3 | 1.2 | – | – |
| CCCCOCC(CN1CC1C)OC(=O)Nc1ccc(C)c(NC(=O)OC(COCCCC)CN2CC2C)c1 (centres unmarked) [Comp. Ex. 11, reference compound] | 1.2 | 1.3 | 2.1 | 2.1 | 2.5 | 2.3 | 1.3 | 1.2 | 1.7 | 1.6 | 1.6 | 1.9 | – |
| CCCCOCC(CN1CC1C)OC(=O)NCCCCCC/N=c1\oc(=O)n(CCCCCCNC(=O)OC(COCCCC)CN2CC2C)c(=O)n1CCCCCCNC(=O)OC(COCCCC)CN1CC1C (centres unmarked) [Ex. 15] | 1.1 | 1.1 | – | 1.0 | – | 0.9 | 1.0 | 1.1 | – | 1.1 | – | 0.9 | – |
| CCCCOCC(CN1CC1(C)C)OC(=O)NCCCCCCn1c(=O)n(CCCCCCNC(=O)OC(COCCCC)CN2CC2(C)C)c(=O)n(CCCCCCNC(=O)OC(COCCCC)CN2CC2(C)C)c1=O (centres unmarked) [Ex. 31] | – | – | – | – | – | – | – | – | – | – | – | – | Genotoxicity test, Rtkn induction level [1, 3]: 1.2; Genotoxicity test, Rtkn induction level [1, 4]: 1.2; Genotoxicity test, Rtkn induction level [1, 5]: 1.3; Genotoxicity test, Rtkn induction level [1, 6]: 1.2; Genotoxicity test, Rtkn induction level [1, 7]: 1.2; Genotoxicity test, Bscl 2 induction level [2, 3]: 1.1; Genotoxicity test, Bscl 2 induction level [2, 4]: 1.1; Genotoxicity test, Bscl 2 induction level [2, 5]: 1.1; Genotoxicity test, Bscl 2 induction level [2, 6]: 1.2; Genotoxicity test, Bscl 2 induction level [2, 7]: 1.2 |
